Patent US6737383B1, “Herbicidal oxadiazolidines” (priority 1999, dated 2004)

Assays:
bedstraw = assay: Test B pre/postemergence bedstraw; assay type: in vivo, Galium aparine; conditions: Preemergence; for Bedstraw plant response rating: scale 0 to 10, 0 is no effect, 10 is complete control
Method in brief: (§1)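 Herbicidal effect was estimated by eye on a ten-point control scale after plants spent twelve to sixteen days in a greenhouse following soil or foliar treatment. Foliar sprays targeted plants at one to four leaves; all doses were formulated in a non-phytotoxic solvent with surfactant.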

blackgrass = assay: Test B pre/postemergence blackgrass; assay type: in vivo, Alopecurus myosuroides
Method in brief: as §1

surinam grass = assay: Test B pre/postemergence surinam grass; assay type: in vivo, Brachiaria decumbens
Method in brief: as §1

cocklebur = assay: Test B pre/postemergence cocklebur; assay type: in vivo, Xanthium strumarium
Method in brief: as §1

corn = assay: Test B pre/postemergence corn; assay type: in vivo, Zea mays
Method in brief: as §1

crabgrass = assay: Test B pre/postemergence crabgrass; assay type: in vivo, Digitaria sanguinalis
Method in brief: as §1

giant foxtail = assay: Test B pre/postemergence giant foxtail; assay type: in vivo, Setaria faberii
Method in brief: as §1

morningglory = assay: Test B pre/postemergence morningglory; assay type: in vivo, Ipomoea hederacea
Method in brief: as §1

pigweed = assay: Test B pre/postemergence pigweed; assay type: in vivo, Amaranthus retroflexus
Method in brief: as §1

rape = assay: Test B pre/postemergence rape; assay type: in vivo, Brassica napus
Method in brief: as §1

soybean = assay: Test B pre/postemergence soybean; assay type: in vivo, Glycine max
Method in brief: as §1

sugar beet = assay: Test B pre/postemergence sugar beet; assay type: in vivo, Beta vulgaris
Method in brief: as §1

velvetleaf = assay: Test B pre/postemergence velvetleaf; assay type: in vivo, Abutilon theophrasti
Method in brief: as §1

wheat = assay: Test B pre/postemergence wheat; assay type: in vivo, Triticum aestivum
Method in brief: as §1

wild oat = assay: Test B pre/postemergence wild oat; assay type: in vivo, Avena fatua
Method in brief: as §1

purple nutsedge = assay: Test B pre/postemergence purple nutsedge; assay type: in vivo, Cyperus rotundus; conditions: Postemergence, Rate 500 g/ha; scale 0 to 10, 0 is no effect, 10 is complete control
Method in brief: as §1

[1] = Postemergence, Rate 62 g/ha, scale of 0 to 10, 0 is no effect, 10 is complete control
[2] = Postemergence, Rate 125 g/ha, scale 0 to 10, 0 is no effect, 10 is complete control
[3] = Postemergence, Rate 250 g/ha, scale 0 to 10
[4] = Postemergence, Rate 500 g/ha, scale 0 to 10, 0 is no effect, 10 is complete control
[5] = Preemergence, Rate 62 g/ha, scale of 0 to 10 where 0 is no effect and 10 is complete control
[6] = Preemergence, Rate 125 g/ha, scale 0 to 10, 0 is no effect, 10 is complete control
[7] = Preemergence, Rate 250 g/ha, scale 0 to 10, 0 is no effect, 10 is complete control
[8] = Preemergence, Rate 500 g/ha, scale of 0 to 10 where 0 is no effect and 10 is complete control

Structure (SMILES): CC(C)N(C(=O)n1oc(=O)n(CCc2ccccc2)c1=O)c1ccc(F)cc1F [Compound 508]
- Plant response rating, Bedstraw (bedstraw; Rate 62 g/ha, scale of 0 to 10 where 0 is no effect and 10 is complete control): 0
- Bedstraw plant response rating (bedstraw; Rate 125 g/ha): 0
- Bedstraw plant response rating (bedstraw; Rate 250 g/ha): 0
- Bedstraw plant response rating (bedstraw; Rate 500 g/ha): 0
- Blackgrass plant response rating (blackgrass; [1]): 0
- Blackgrass plant response rating (blackgrass; [2]): 3
- Blackgrass plant response rating (blackgrass; [3]): 6
- Plant response rating, Blackgrass (blackgrass; [4]): 6
- Plant response rating, Blackgrass (blackgrass; [5]): 1
- Blackgrass plant response rating (blackgrass; [6]): 3
- Blackgrass plant response rating (blackgrass; [7]): 5
- Blackgrass plant response rating (blackgrass; [8]): 8
- B. signalgrass plant response rating (surinam grass; [1]): 0
- B. signalgrass plant response rating (surinam grass; [2]): 0
- B. signalgrass plant response rating (surinam grass; Postemergence, Rate 250 g/ha, scale 0 to 10, 0 no effect, 10 complete control): 3
- Plant response rating, B. signalgrass (surinam grass; [4]): 3
- Plant response rating, B. signalgrass (surinam grass; [5]): 4
- B. signalgrass plant response rating (surinam grass; [6]): 7
- B. signalgrass plant response rating (surinam grass; [7]): 8
- B. signalgrass plant response rating (surinam grass; Preemergence, Rate 500 g/ha, scale 0 to 10, 0 is no effect, 10 is complete control): 8
- Cocklebur plant response rating (cocklebur; [1]): 0
- Cocklebur plant response rating (cocklebur; [2]): 1
- Cocklebur plant response rating (cocklebur; [3]): 4
- Plant response rating, Cocklebur (cocklebur; [4]): 4
- Plant response rating, Cocklebur (cocklebur; [5]): 0
- Cocklebur plant response rating (cocklebur; [6]): 0
- Cocklebur plant response rating (cocklebur; [7]): 0
- Cocklebur plant response rating (cocklebur; [8]): 0
- Corn plant response rating (corn; [1]): 0
- Corn plant response rating (corn; [2]): 0
- Corn plant response rating (corn; [3]): 0
- Plant response rating, Corn (corn; [4]): 3
- Plant response rating, Corn (corn; [5]): 0
- Corn plant response rating (corn; [6]): 0
- Corn plant response rating (corn; [8]): 4
- Crabgrass plant response rating (crabgrass; [1]): 9
- Crabgrass plant response rating (crabgrass; [2]): 9
- Crabgrass plant response rating (crabgrass; [3]): 9
- Plant response rating, Crabgrass (crabgrass; [4]): 9
- Plant response rating, Crabgrass (crabgrass; [5]): 6
- Crabgrass plant response rating (crabgrass; [6]): 9
- Crabgrass plant response rating (crabgrass; [8]): 10
- Giant foxtail plant response rating (giant foxtail; [1]): 8
- Giant foxtail plant response rating (giant foxtail; [2]): 8
- Plant response rating, Giant foxtail (giant foxtail; [4]): 8
- Plant response rating, Giant foxtail (giant foxtail; [5]): 10
- Giant foxtail plant response rating (giant foxtail; [6]): 10
- Giant foxtail plant response rating (giant foxtail; [8]): 10
- Morningglory plant response rating (morningglory; [1]): 3
- Morningglory plant response rating (morningglory; [2]): 3
- Plant response rating, Morningglory (morningglory; [4]): 7
- Plant response rating, Morningglory (morningglory; [5]): 0
- Morningglory plant response rating (morningglory; [6]): 0
- Morningglory plant response rating (morningglory; [8]): 0
- Redroot pigweed plant response rating (pigweed; [1]): 3
- Redroot pigweed plant response rating (pigweed; [2]): 7
- Plant response rating, Redroot pigweed (pigweed; [4]): 9
- Plant response rating, Redroot pigweed (pigweed; [5]): 7
- Redroot pigweed plant response rating (pigweed; [6]): 8
- Redroot pigweed plant response rating (pigweed; [8]): 10
- Rape plant response rating (rape; [1]): 1
- Rape plant response rating (rape; [2]): 5
- Plant response rating, Rape (rape; [4]): 8
- Plant response rating, Rape (rape; [5]): 0
- Rape plant response rating (rape; [6]): 0
- Rape plant response rating (rape; [8]): 3
- Soybean plant response rating (soybean; [1]): 4
- Soybean plant response rating (soybean; [2]): 4
- Plant response rating, Soybean (soybean; [4]): 5
- Plant response rating, Soybean (soybean; [5]): 0
- Soybean plant response rating (soybean; [6]): 0
- Soybean plant response rating (soybean; [8]): 0
- Sugarbeets plant response rating (sugar beet; [1]): 0
- Sugarbeets plant response rating (sugar beet; [2]): 1
- Plant response rating, Sugarbeets (sugar beet; [4]): 9
- Plant response rating, Sugarbeets (sugar beet; [5]): 1
- Sugarbeets plant response rating (sugar beet; [6]): 1
- Sugarbeets plant response rating (sugar beet; [8]): 6
- Velvetleaf plant response rating (velvetleaf; [1]): 0
- Velvetleaf plant response rating (velvetleaf; [2]): 1
- Plant response rating, Velvetleaf (velvetleaf; [4]): 2
- Plant response rating, Velvetleaf (velvetleaf; [5]): 0
- Velvetleaf plant response rating (velvetleaf; [6]): 0
- Velvetleaf plant response rating (velvetleaf; [8]): 0
- Wheat plant response rating (wheat; [1]): 0
- Wheat plant response rating (wheat; [2]): 0
- Plant response rating, Wheat (wheat; [4]): 0
- Plant response rating, Wheat (wheat; [5]): 0
- Wheat plant response rating (wheat; [6]): 0
- Wheat plant response rating (wheat; [8]): 2
- Wild oats plant response rating (wild oat; [1]): 0
- Wild oats plant response rating (wild oat; [2]): 0
- Plant response rating, Wild oats (wild oat; [4]): 4
- Plant response rating, Wild oats (wild oat; [5]): 3
- Wild oats plant response rating (wild oat; [6]): 4
- Wild oats plant response rating (wild oat; [8]): 7
- Plant response rating, Nutsedge (purple nutsedge): 0
